US20260098061A1, “EPHA2-BINDING PENDING PEPTIDE AND COMPOSITION COMPRISING SAME” (PeptiDream Inc., priority 2022, published 2026)
Numbered stars: 1 amine (or outer) side, 2 acyl side, 3 side chain; on linkers, the order of the positions; unused ones are H or OH. Bridge positions count the residues as written; N and C are the ends. Square brackets hold non-standard residues; d marks the D form. Side chains are listed from the residue outwards. Peptide text beside a SMILES is read from it. * marks the point of attachment. NH(1-deoxy-D-glucityl) = OC[C@@H](O)[C@@H](O)[C@H](O)[C@@H](O)CN*; Trp(1-Me,7-Cl) = Cn1cc(C[C@H](N)C(=O)O)c2cccc(Cl)c21; dPhe(3-CONH2) = NC(=O)c1cccc(C[C@@H](N)C(=O)O)c1; Piperazinyl(4-CH2COOH) = O=C(O)CN1CCN(*)CC1; Trp(1-Me) = Cn1cc(C[C@H](N)C(=O)O)c2ccccc21; NMe3Pal = CN[C@@H](Cc1cccnc1)C(=O)O; NMeF = CN[C@@H](Cc1ccccc1)C(=O)O; hCit = NC(=O)NCCCC[C@H](N)C(=O)O; Gly(cBu) = N[C@H](C(=O)O)C1CCC1; NMeE = CN[C@@H](CCC(=O)O)C(=O)O; Aad = N[C@@H](CCCC(=O)O)C(=O)O; Cit = NC(=O)NCCC[C@H](N)C(=O)O; NMeN = CN[C@@H](CC(N)=O)C(=O)O; Chg = N[C@H](C(=O)O)C1CCCCC1; CO = O=C([*:1])[*:2]; βAla = NCCC(=O)O

What follows are compounds tested against T1, Recombinant Human EphA2 Fc Protein (Homo sapiens, UniProt P29317) (assay: SPR interaction analysis (Biacore T200), kinetics of peptides against EphA2). Conditions: Recombinant Human EphA2 Fc Protein captured by Human Antibody Capture kit; single-cycle kinetics; 25° C.; HBS-P+ buffer with 1% DMSO.
T1 construct: purchased Elabscience
Assay type: binding
Experimental: Example 14 Interaction Analysis by SPR was Performed Using Biacore (Cytiva)
SPR assay was performed using Biacore T200 (Cytiva).
The HBS-P+ buffer (10 mM HEPES (pH7.4), 150 mM NaCl, 0.05% (v/V) Surfactant P20) containing 1% DMSO was used as running buffer. Recombinant Human EphA2 Fc Protein (Fc tag, Elabscience) was captured by Human Antibody Capture kit (Cytiva). Peptide samples in DMSO were diluted with running buffer, and prepared five serial dilutions. Using these serial dilutions, kinetics of peptides against EphA2 was measured at a flow rate of 30 mL/min at 25° C. The method adopted for sample measurement was a single-cycle kinetics method. The analysis was conducted using the evaluation software 3.0 provided with Biacore T200. Kinetics fitting was done on the difference data obtained by subtracting the baseline data from sample measurement data. KD values were calculated based on the association rate constant (ka) and dissociation rate constant (kd).

| SMILES | Kd |
| --- | --- |
| C[C@H]1NC(=O)CSC[C@@H](C(N)=O)NC(=O)[C@H](CCCC(N)=O)NC(=O)[C@H]([C@@H](C)O)NC(=O)[C@H](Cc2cn(C)c3ccccc23)NC(=O)[C@H](CCC(=O)NC[C@H](O)[C@@H](O)[C@H](O)[C@H](O)CO)NC(=O)[C@H](Cc2cn(C)c3ccccc23)NC(=O)[C@H](Cc2cccnc2)N(C)C(=O)[C@H](CCCC(N)=O)NC(=O)[C@H](C2CCC2)NC(=O)[C@H](CC(N)=O)NC(=O)[C@H](Cc2ccccc2)N(C)C1=O [PDC_EphA2-00013704, da-MeF-N-Cbg-Hgn-Me3Py-W1Me-Qglucamine-W1Me-T-Hgn-C-NH2] ({CH2CO}-[dA][NMeF]N[Gly(cBu)][Aad](NH2)[NMe3Pal][Trp(1-Me)]E(NH(1-deoxy-D-glucityl))[Trp(1-Me)]T[Aad](NH2)C-NH2; thioether N-12) | < 1 nM |
| CC(=O)NCCCC[C@@H](NC(=O)CCNC(=O)[C@@H]1CSCC(=O)N[C@H](C)C(=O)N(C)[C@@H](Cc2cccnc2)C(=O)N[C@@H](CC(N)=O)C(=O)N[C@@H](CC(C)C)C(=O)N[C@@H](CCCCNC(=O)N2CCN(CC(=O)O)CC2)C(=O)N(C)[C@@H](CCC(=O)O)C(=O)N[C@@H](Cc2cn(C)c3ccccc23)C(=O)N[C@@H](CCCCNC(=O)N2CCN(CC(=O)O)CC2)C(=O)N[C@@H](Cc2cn(C)c3ccccc23)C(=O)N[C@@H]([C@@H](C)O)C(=O)N[C@@H](CCCC(N)=O)C(=O)N1)C(N)=O [PDC_EphA2-00008095, da-Me3Py-N-L-KCOpipzaa-MeE-W1Me-KCOpipzaa-W1Me-T-Hgn-C-bA-dkAc-NH2] ({CH2CO}-[dA][NMe3Pal]NLK([CO-Piperazinyl(4-CH2COOH)])[NMeE][Trp(1-Me)]K([CO-Piperazinyl(4-CH2COOH)])[Trp(1-Me)]T[Aad](NH2)C[βAla][dK](Ac)-NH2; thioether N-12) | < 1 nM |
| C[C@H]1NC(=O)CSC[C@@H](C(N)=O)NC(=O)[C@H](CCCC(N)=O)NC(=O)[C@H]([C@@H](C)O)NC(=O)[C@H](Cc2cn(C)c3ccccc23)NC(=O)[C@H](CCCCNC(=O)N2CCN(CC(=O)O)CC2)NC(=O)[C@H](Cc2cn(C)c3ccccc23)NC(=O)[C@H](Cc2ccccc2)N(C)C(=O)[C@H](CCCC(N)=O)NC(=O)[C@H](C2CCCCC2)NC(=O)[C@H](CC(N)=O)NC(=O)[C@H](Cc2cccnc2)N(C)C1=O [PDC_EphA2-00010005, da-Me3Py-N-Chg-Hgn-MeF-W1Me-KCOpipzaa-W1Me-T-Hgn-C-NH2] ({CH2CO}-[dA][NMe3Pal]N[Chg][Aad](NH2)[NMeF][Trp(1-Me)]K([CO-Piperazinyl(4-CH2COOH)])[Trp(1-Me)]T[Aad](NH2)C-NH2; thioether N-12) | < 1 nM |
| CNC(=O)C[C@@H]1NC(=O)[C@H]([C@@H](C)O)NC(=O)[C@H](Cc2cn(C)c3ccccc23)NC(=O)[C@H](CCCCNC(=O)N2CCN(CC(=O)O)CC2)NC(=O)[C@H](Cc2cn(C)c3ccccc23)NC(=O)[C@H](CCC(=O)O)N(C)C(=O)[C@H](CCCC(N)=O)NC(=O)[C@H](CC(C)C)NC(=O)[C@H](CC(N)=O)NC(=O)[C@H](Cc2cccnc2)N(C)C(=O)[C@@H](C)NC(=O)CSC[C@@H](C(N)=O)NC1=O [PDC_EphA2-00018533, da-Me3Py-N-L-Hgn-MeE-W1Me-KCOpipzaa-W1Me-T-Nmm-C-NH2] ({CH2CO}-[dA][NMe3Pal]NL[Aad](NH2)[NMeE][Trp(1-Me)]K([CO-Piperazinyl(4-CH2COOH)])[Trp(1-Me)]TD(NHMe)C-NH2; thioether N-12) | < 1 nM |
| C[C@H]1NC(=O)CSC[C@@H](C(N)=O)NC(=O)[C@H](CC(=O)N(C)C)NC(=O)[C@H]([C@@H](C)O)NC(=O)[C@H](Cc2cn(C)c3ccccc23)NC(=O)[C@H](CCCCNC(=O)N2CCN(CC(=O)O)CC2)NC(=O)[C@H](Cc2cn(C)c3ccccc23)NC(=O)[C@H](Cc2ccccc2)N(C)C(=O)[C@H](CCCC(N)=O)NC(=O)[C@H](C2CCCCC2)NC(=O)[C@H](CC(N)=O)NC(=O)[C@H](Cc2cccnc2)N(C)C1=O [PDC_EphA2-00018540, da-Me3Py-N-Chg-Hgn-MeF-W1Me-KCOpipzaa-W1Me-T-Ndm-C-NH2] ({CH2CO}-[dA][NMe3Pal]N[Chg][Aad](NH2)[NMeF][Trp(1-Me)]K([CO-Piperazinyl(4-CH2COOH)])[Trp(1-Me)]TD(NMe2)C-NH2; thioether N-12) | < 1 nM |
| C[C@H]1NC(=O)CSC[C@@H](C(N)=O)NC(=O)[C@H](CCCC(N)=O)NC(=O)[C@H]([C@@H](C)O)NC(=O)[C@H](Cc2cn(C)c3ccccc23)NC(=O)[C@H](CCC(=O)NC[C@H](O)[C@@H](O)[C@H](O)[C@H](O)CO)NC(=O)[C@H](Cc2cn(C)c3ccccc23)NC(=O)[C@H](CC(N)=O)N(C)C(=O)[C@H](CCCC(N)=O)NC(=O)[C@H](C2CCC2)NC(=O)[C@H](CC(N)=O)NC(=O)[C@H](Cc2ccccc2)N(C)C1=O [PDC_EphA2-00013703, da-MeF-N-Cbg-Hgn-MEN-W1Me-Qglucamine-W1Me-T-Hgn-C-NH2] ({CH2CO}-[dA][NMeF]N[Gly(cBu)][Aad](NH2)[NMeN][Trp(1-Me)]E(NH(1-deoxy-D-glucityl))[Trp(1-Me)]T[Aad](NH2)C-NH2; thioether N-12) | < 1 nM |

More lines, now with the values ahead:

| Kd | SMILES |
| --- | --- |
| < 1 nM | C[C@@H](O)[C@@H]1NC(=O)[C@H](Cc2cn(C)c3ccccc23)NC(=O)[C@H](CCCCNC(=O)N2CCN(CC(=O)O)CC2)NC(=O)[C@H](Cc2cn(C)c3c(Cl)cccc23)NC(=O)[C@H](CCC(=O)O)N(C)C(=O)[C@H](CCCC(N)=O)NC(=O)[C@H](C2CCC2)NC(=O)[C@H](CC(N)=O)NC(=O)[C@H](Cc2cccnc2)N(C)C(=O)[C@@H](Cc2cccc(C(N)=O)c2)NC(=O)CSC[C@@H](C(N)=O)NC(=O)[C@H](CCCC(N)=O)NC1=O [PDC_EphA2-00019440, df3CON-Me3Py-N-Cbg-Hgn-MeE-W1Me7Cl-KCOpipzaa-W1Me-T-Hgn-C-NH2] ({CH2CO}-[dPhe(3-CONH2)][NMe3Pal]N[Gly(cBu)][Aad](NH2)[NMeE][Trp(1-Me,7-Cl)]K([CO-Piperazinyl(4-CH2COOH)])[Trp(1-Me)]T[Aad](NH2)C-NH2; thioether N-12) |
| 10 to 100 nM | CC(C)C[C@@H]1NC(=O)[C@H](CC(N)=O)NC(=O)[C@H](Cc2c[nH]cn2)NC(=O)[C@H](Cc2ccccc2)NC(=O)CSC[C@@H](C(N)=O)NC(=O)[C@H](Cc2cn(C)c3ccccc23)NC(=O)[C@H](CCCCNC(N)=O)NC(=O)[C@H](Cc2cn(C)c3ccccc23)NC(=O)[C@H](Cc2ccccc2)N(C)C(=O)[C@H](CO)NC1=O [PDC_EphA2-00022417, F-H-N-L-S-MeF-W1Me-Hcit-W1Me-C-NH2] ({CH2CO}-FHNLS[NMeF][Trp(1-Me)][hCit][Trp(1-Me)]C-NH2; thioether N-10) |
| 10 to 100 nM | CC(=O)NCCCC[C@@H](NC(=O)[C@@H]1CSCC(=O)N[C@@H](Cc2ccccc2)C(=O)N[C@@H](Cc2c[nH]cn2)C(=O)N[C@@H](CC(N)=O)C(=O)N[C@@H](CC(C)C)C(=O)N[C@@H](CO)C(=O)N(C)[C@@H](Cc2ccccc2)C(=O)N[C@@H](Cc2cn(C)c3ccccc23)C(=O)N[C@@H](CCCCNC(N)=O)C(=O)N[C@@H](Cc2cn(C)c3ccccc23)C(=O)N1)C(N)=O [PDC_EphA2-00022608, F-H-N-L-S-MeF-W1Me-Hcit-W1Me-C-dkAc-NH2] ({CH2CO}-FHNLS[NMeF][Trp(1-Me)][hCit][Trp(1-Me)]C[dK](Ac)-NH2; thioether N-10) |
| < 1 nM | CC(C)C[C@@H]1NC(=O)[C@H](CC(N)=O)NC(=O)[C@H](Cc2ccccc2)N(C)C(=O)[C@@H](Cc2cccc(C(N)=O)c2)NC(=O)CSC[C@@H](C(N)=O)NC(=O)[C@H](CCCC(N)=O)NC(=O)[C@H]([C@@H](C)O)NC(=O)[C@H](Cc2cn(C)c3ccccc23)NC(=O)[C@H](C(C)C)NC(=O)[C@H](Cc2cn(C)c3ccccc23)NC(=O)[C@H](CC(N)=O)N(C)C(=O)[C@H](CCCC(N)=O)NC1=O [PDC_EphA2-00019423, df3CON-MeF-N-L-Hgn-MeN-W1Me-V-W1Me-T-Hgn-C-NH2] ({CH2CO}-[dPhe(3-CONH2)][NMeF]NL[Aad](NH2)[NMeN][Trp(1-Me)]V[Trp(1-Me)]T[Aad](NH2)C-NH2; thioether N-12) |
| 10 to 100 nM | CC(=O)NCCCC[C@H](NC(=O)[C@@H]1CSCC(=O)N[C@@H](Cc2ccccc2)C(=O)N[C@@H](Cc2c[nH]cn2)C(=O)N[C@@H](CC(N)=O)C(=O)N[C@@H](CC(C)C)C(=O)N[C@@H](CO)C(=O)N(C)[C@@H](Cc2ccccc2)C(=O)N[C@@H](Cc2cn(C)c3ccccc23)C(=O)N[C@@H](CCCCNC(N)=O)C(=O)N[C@@H](Cc2cn(C)c3ccccc23)C(=O)N1)C(N)=O [PDC_EphA2-00022607, F-H-N-L-S-MeF-W1Me-Hcit-W1Me-C-KAc-NH2] ({CH2CO}-FHNLS[NMeF][Trp(1-Me)][hCit][Trp(1-Me)]CK(Ac)-NH2; thioether N-10) |
| < 1 nM | CC(C)C[C@@H]1NC(=O)[C@H](CC(N)=O)NC(=O)[C@H](Cc2ccccc2)N(C)C(=O)[C@@H](Cc2cccc(C(N)=O)c2)NC(=O)CSC[C@@H](C(N)=O)NC(=O)[C@H](CC(N)=O)NC(=O)[C@H]([C@@H](C)O)NC(=O)[C@H](Cc2cn(C)c3ccccc23)NC(=O)[C@H](CCCNC(N)=O)NC(=O)[C@H](Cc2cn(C)c3c(Cl)cccc23)NC(=O)[C@H](CCC(=O)O)N(C)C(=O)[C@H](CC(N)=O)NC1=O [PDC_EphA2-00026426, df3CON-Me3Py-N-L-N-MeN-W1Me7Cl-Cit-W1Me-T-N-C-NH2] ({CH2CO}-[dPhe(3-CONH2)][NMeF]NLN[NMeE][Trp(1-Me,7-Cl)][Cit][Trp(1-Me)]TNC-NH2; thioether N-12) |
